{
  "source": "patent US10314295B2",
  "about": "“Mouse model of hyperuricemia” (PHOENIXBIO CO., LTD., priority 2014, dated 2019)",
  "test_system": "hyperuricemia model mice",
  "assay": "Allopurinol-induced change in plasma uric acid level in hyperuricemia model mice",
  "assay_type": "in vivo, mouse",
  "procedure": "The hyperuricemia model mice obtained as described above were subjected to administration of allopurinol, which is an existing drug for lowering blood uric acid levels. The number of the mice subjected to administration of allopurinol was six.\nAllopurinol (Wako Pure Chemical Industries, Ltd.) was suspended in a 0.5 w/v% methylcellulose (MC) 400 solution (sterilized, Wako Pure Chemical Industries, Ltd.) for preparation of a 0.5 mg/mL allopurinol suspension. The 0.5 mg/mL allopurinol suspension was orally administered once in a volume of 10 mL/kg body weight (5 mg/kg body weight).\nBlood was collected from each mouse before and 2, 4 and 24 hours after allopurinol or a 0.5 w/v % methylcellulose 400 solution was administered. The plasma uric acid concentration was measured in the same manner as above.",
  "data": [
    {"smiles": "Oc1ncnc2[nH]ncc12", "note": "[allopurinol]", "values": [
      {"measurement": "mean of the plasma uric acid concentrations", "setting": "2 hours after single oral 5 mg/kg body weight, 6 mice, mean before administration 3.8 mg/dL, vehicle control 3.0 before, 4.8 at 2 hours", "result": 1.9, "unit": "mg/dL"},
      {"measurement": "change of plasma uric acid concentration by administration", "setting": "single oral 5 mg/kg body weight, 2 hours after vs before administration", "result": "significantly reduced"}
    ]}
  ]
}
